# Reference: publication PMC8752738, “A propolis-derived small molecule ameliorates metabolic syndrome in obese mice by targeting the CREB/CRTC2 transcriptional complex” (Nature Communications, 2022)
# Several values for one entry are separate records, joined by “and”; a condition that tells them apart may be missing. Identical values can stand only once.
# Assays:
# HIS-CREB protein = target: T1, HIS-CREB protein (Homo sapiens, UniProt P16220); assay: Surface plasmon resonance, immobilized HIS-CREB; format: binding; details: dose-dependent
# T1 construct: made in house
# T1 sequence (P16220 whole entry): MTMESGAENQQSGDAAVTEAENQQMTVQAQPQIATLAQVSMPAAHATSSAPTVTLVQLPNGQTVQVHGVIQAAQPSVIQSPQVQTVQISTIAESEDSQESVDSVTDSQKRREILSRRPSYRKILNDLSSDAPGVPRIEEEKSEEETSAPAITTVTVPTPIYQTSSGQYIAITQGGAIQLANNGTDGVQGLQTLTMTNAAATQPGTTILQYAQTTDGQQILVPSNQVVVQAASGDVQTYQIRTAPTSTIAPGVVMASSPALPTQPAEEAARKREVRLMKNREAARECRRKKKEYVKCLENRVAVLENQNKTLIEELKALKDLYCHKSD
# Procedure: BIACORE 100 (GE Healthcare) was employed to perform surface plasmon resonance. Briefly, purified HIS-CREB proteins were captured in the test channel of an NTA-chip (GE, Healthcare) in HEPES buffer (10 mM HEPES, 150 mM NaCl, 3 mM EDTA, pH 7.5). APC solutions with different concentrations were flowed through immobilized HIS-CREB proteins for indicated times, which caused equilibrium response values (RU) to change appropriately. The detected RU values were plotted by time using GraphPad Prism software.
# [1] = Glucose, insulin, and pyruvate tolerance tests; format: in vivo, mouse; design: AUC of IGTT, Total Area / AUC analysis of ITT, Total Area / AUC of ITT, group mean / AUC of PTT, group mean / IGTT, Mean Diff. APC - VEH / IGTT, group mean (Mean 1, APC): unit not given beside the values; details: for blood glucose, PTT in DIO, group mean / blood glucose, IGTT, mean / ITT, group mean: N=7; for blood glucose: OGTT in db/db; for IGTT, group mean (Mean 1, APC): n=8
# Procedure: After overnight fasting, mice were i.p. injected or treated orally with D-glucose (1–2 g/kg) for glucose-tolerance tests (IGTT or OGTT) or injecting with sodium pyruvate (1–2 g/kg) for pyruvate tolerance tests (PTT). Insulin-tolerance tests (ITT) were performed by i.p. injection of insulin (1 U/kg) 2-h after food removal. […]
# [2] = DIO and db/db mice, i.p. 20 mg/kg, 5 weeks
structure (smiles),measurement,setting,value
"CC(C)=CCc1cc(C=CC(=O)O)cc(CC=C(C)C)c1O [APC, 3,5-diprenyl-4-hydroxycinnamic acid]",binding to immobilized HIS-CREB (SPR),HIS-CREB protein,directly bound
same,capability for gluconeogenesis (PTT),[1]; [2],significantly inhibited
same,whole-body insulin sensitivity (GTT and ITT),[1]; [2],greatly enhanced
same,"blood glucose, PTT in DIO, group mean","[1]; DIO mice, 0 mins of PTT, mean of APC group",98.23 mg/dL
same,"blood glucose, PTT in DIO","[1]; DIO mice, 0 mins of PTT, single animals, n=7",79.2 mg/dL and 84.6 mg/dL and 104.4 mg/dL and 95.4 mg/dL and 124.2 mg/dL and 122.4 mg/dL and 77.4 mg/dL
same,"blood glucose, PTT in DIO, group mean","[1]; DIO mice, 15 mins of PTT, mean of APC group",148.9 mg/dL
same,"blood glucose, PTT in DIO","[1]; DIO mice, 15 mins of PTT, single animals, n=7",135 mg/dl and 153 mg/dl and 190.8 mg/dl and 156.6 mg/dl (2×) and 127.8 mg/dl and 122.4 mg/dl
same,"blood glucose, PTT in DIO, group mean","[1]; DIO mice, 30 mins of PTT, mean of APC group",191.6 mg/dL
same,"blood glucose, PTT in DIO","[1]; DIO mice, 30 mins of PTT, single animals, n=7",160.2 mg/dL and 192.6 mg/dL and 210.6 mg/dL and 185.4 mg/dL and 230.4 mg/dL and 187.2 mg/dL and 174.6 mg/dL
same,"blood glucose, PTT in DIO, group mean","[1]; DIO mice, 60 mins of PTT, mean of APC group",174.9 mg/dL
same,"blood glucose, PTT in DIO","[1]; DIO mice, 60 mins of PTT, single animals, n=7",129.6 mg/dL and 163.8 mg/dL and 210.6 mg/dL and 156.6 mg/dL and 248.4 mg/dL and 176.4 mg/dL and 138.6 mg/dL
same,"blood glucose, PTT in DIO, group mean","[1]; DIO mice, 120 mins of PTT, mean of APC group",133.2 mg/dL
same,"blood glucose, PTT in DIO","[1]; DIO mice, 120 mins of PTT, single animals, n=7",93.6 mg/dl and 126 mg/dl (2×) and 165.6 mg/dl and 178.2 mg/dl and 120.6 mg/dl and 122.4 mg/dl
same,"blood glucose, PTT in DIO, mean over all time points","[1]; DIO mice, Mean of APC, two-way RM ANOVA",149.3 mg/dL
same,"AUC of PTT, group mean","[1]; DIO mice, mean of APC group, n=7",631
same,Total Area of PTT (AUC analysis of PTT),"[1]; DIO mice, single animals, n=7",511.2 and 614.7 and 747 and 609.3 and 757.8 and 641.7 and 535.5
same,"blood glucose, IGTT, mean","[1]; Figure 8f, IGTT in DIO, 0 mins, group mean, VEH 112.9",93.09 mg/dL
same,"blood glucose, IGTT","[1]; Figure 8f, IGTT in DIO, 0 mins, individual mice",109.80 mg/dl (2×) and 84.60 mg/dl (2×) and 72.00 mg/dl and 97.20 mg/dl and 93.60 mg/dl
same,"blood glucose, IGTT, mean","[1]; Figure 8f, IGTT in DIO, 15 mins, group mean, VEH 362.1",364.4 mg/dL
same,"blood glucose, IGTT","[1]; Figure 8f, IGTT in DIO, 15 mins, individual mice",243.00 mg/dL and 401.40 mg/dL and 361.80 mg/dL and 469.80 mg/dL and 279.00 mg/dL and 376.20 mg/dL and 419.40 mg/dL
same,"blood glucose, IGTT, mean","[1]; Figure 8f, IGTT in DIO, 30 mins, group mean, VEH 448.5",358.7 mg/dL
same,"blood glucose, IGTT","[1]; Figure 8f, IGTT in DIO, 30 mins, individual mice",198.00 mg/dL and 376.20 mg/dL and 453.60 mg/dL and 383.40 mg/dL and 358.20 mg/dL and 468.00 mg/dL and 273.60 mg/dL
same,"blood glucose, IGTT, mean","[1]; Figure 8f, IGTT in DIO, 60 mins, group mean, VEH 351.8",257.9 mg/dL
same,"blood glucose, IGTT","[1]; Figure 8f, IGTT in DIO, 60 mins, individual mice",171.00 mg/dL and 248.40 mg/dL and 298.80 mg/dL and 241.20 mg/dL and 307.80 mg/dL and 372.60 mg/dL and 165.60 mg/dL
same,"blood glucose, IGTT, mean","[1]; Figure 8f, IGTT in DIO, 100 mins, group mean, VEH 222.7",157.1 mg/dL
same,"blood glucose, IGTT","[1]; Figure 8f, IGTT in DIO, 100 mins, individual mice",140.40 mg/dL and 131.40 mg/dL and 176.40 mg/dL and 138.60 mg/dL and 207.00 mg/dL and 190.80 mg/dL and 115.20 mg/dL
same,"AUC of IGTT, Total Area","[1]; Figure 8f, IGTT in DIO, individual mice",737.1 and 1134 and 1257 and 1200 and 1097 and 1359 and 958.5
same,"blood glucose, ITT","[1]; Figure 8g, ITT in DIO, 0 mins, individual mice",163.8 mg/dl (2×) and 151.2 mg/dl and 124.2 mg/dl and 156.6 mg/dl (2×) and 160.2 mg/dl
same,"blood glucose, ITT","[1]; Figure 8g, ITT in DIO, 15 mins, individual mice",91.8 mg/dL and 75.6 mg/dL and 79.2 mg/dL and 93.6 mg/dL and 97.2 mg/dL and 77.4 mg/dL and 108 mg/dL
same,"blood glucose, ITT","[1]; Figure 8g, ITT in DIO, 30 mins, individual mice",88.2 mg/dl (2×) and 73.8 mg/dl and 93.6 mg/dl and 82.8 mg/dl and 68.4 mg/dl and 86.4 mg/dl
same,"blood glucose, ITT","[1]; Figure 8g, ITT in DIO, 60 mins, individual mice",75.6 mg/dL and 88.2 mg/dL and 79.2 mg/dL and 93.6 mg/dL and 81 mg/dL and 61.2 mg/dL and 52.2 mg/dL
same,"blood glucose, ITT","[1]; Figure 8g, ITT in DIO, 100 mins, individual mice",86.4 mg/dl (2×) and 124.2 mg/dl and 75.6 mg/dl and 88.2 mg/dl (2×) and 50.4 mg/dl
same,"AUC analysis of ITT, Total Area","[1]; Figure 8g, ITT in DIO, individual mice",380.7 and 389.7 and 337.5 and 396.9 and 383.4 and 333 and 351.9
same,blood glucose,"[1]; Figure 9g, Time 0.0 mins, single animals",320.4 mg/dL and 340.2 mg/dL and 352.8 mg/dL and 234.0 mg/dL and 396.0 mg/dL
same,blood glucose,"[1]; Figure 9g, Time 30.0 mins, single animals",345.6 mg/dL and 576.0 mg/dL and 259.2 mg/dL and 268.2 mg/dL and 599.4 mg/dL
same,blood glucose,"[1]; Figure 9g, Time 60.0 mins, single animals",334.8 mg/dL and 468.0 mg/dL and 158.4 mg/dL and 194.4 mg/dL and 502.2 mg/dL
same,blood glucose,"[1]; Figure 9g, Time 90.0 mins, single animals",268.2 mg/dL and 486.0 mg/dL and 162.0 mg/dL and 203.4 mg/dL and 419.4 mg/dL
same,"AUC of OGTT, mean","[1]; Figure 9g, db/db, group mean, n 5",1059
same,AUC of OGTT,"[1]; Figure 9g, db/db, single animals",974.7 and 1457 and 675 and 681.3 and 1509
same,"OGTT in db/db, column mean of blood glucose","[1]; Figure 9g, mean over all time points and animals, N 20",344.4 mg/dL
same,"ITT, group mean","[1]; 0 min, mean of APC group",153.8
same,"ITT, group mean","[1]; 15 min, mean of APC group",88.97
same,"ITT, group mean","[1]; 30 min, mean of APC group",83.06
same,"ITT, group mean","[1]; 60 min, mean of APC group",75.86
same,"ITT, group mean","[1]; 100 min, mean of APC group",85.63
same,"AUC of IGTT in db/db, difference between means (APC - VEH) ± SEM",[1]; db/db mice,-383.6 ± 97.97
same,"IGTT, Mean Diff. APC - VEH","[1]; db/db mice, 0 min",-33.3
same,"IGTT, group mean (Mean 1, APC)","[1]; db/db mice, 0 min",142
same,"IGTT, Mean Diff. APC - VEH","[1]; db/db mice, 15 min",-2.925
same,"IGTT, group mean (Mean 1, APC)","[1]; db/db mice, 15 min",441.9
same,"IGTT, Mean Diff. APC - VEH","[1]; db/db mice, 30 min",-145.1
same,"IGTT, group mean (Mean 1, APC)","[1]; db/db mice, 30 min",281
same,"IGTT, Mean Diff. APC - VEH","[1]; db/db mice, 60 min",-166.5
same,"IGTT, group mean (Mean 1, APC)","[1]; db/db mice, 60 min",217.8
same,"IGTT, Mean Diff. APC - VEH","[1]; db/db mice, 120 min",-105
same,"IGTT, group mean (Mean 1, APC)","[1]; db/db mice, 120 min",171
